Assay results: patent US20100093613A1, “METHODS FOR IDENTIFYING AGENTS AND THEIR USE FOR THE PREVENTION OR STABILIZATION OF FIBROSIS” (priority 2007, published 2010)

Tested on: Bronchial epithelial cells + Fibroblasts
Test: BioMAP BF4T system (IL-4 + TNF-α), scoring of readout parameters
Type: cell-based, human
Design: key: 1 = modulated in desired direction, 0 = not (−1 if opposite)
Details: for MMP-3 score / PAI-1 score: desired change decrease; for MMP-1 score / uPA score: desired change increase
Description: In the “BF4T” system, bronchial epithelial cells, usually primary human bronchial epithelial cells, are cultured with fibroblasts, usually primary human fibroblasts, in the presence of TNF-α and IL-4. In addition to the factors, stimuli of interest that may be included in the culture medium include TGF-β, IL-5, II-10, IL-9, Tryptase, GM-CSF, II-17, CD40L, Histamine, IgE stimulated Mast Cells, LTB4 stimulated neutrophils, and PBMC stimulated with LPS or SAg.
Human neonatal fibroblasts (HDFn) and normal human bronchial epithelial cells (BrEPI) are used. Human lung fibroblasts (adult or neonatal) could also be used. HDFn are cultured in DMEM/F12 (50/50) from Cellgro, supplemented with LSGS kit (from Cascade Biologics); fetal bovine serum, 2% v/v, hydrocortisone 1 μg/ml, human epidermal growth factor 10 ng/ml, basic fibroblast growth factor 3 ng/ml and heparin 10 μg/ml, and penicillin/streptomycin amphotericin B solution (PSA). BrEPI are cultured in supplemented BEBM medium (Cambrex) at 2×10^4/ml. BrEPI may also be cultured with Bronchial/Tracheal Epithelial Cell Serum-Free Growth Medium (Cell Applications, Inc.) or F12/DMEM supplemented with 10 μg/ml rhu-insulin, 10 μg/ml transferrin, 10 ng/ml epidermal growth factor (EGF), 1 μM ethanolamine, 25 μg/ml aprotinin, 25 μg/ml glucose, 1 μM phosphoethanolamine, 5 μM triiodothyronine, 50 nM selenium, 1 nM hydrocortisone, 1 nM progesterone, 5 μM forskolin, 10 μM heregulin β177-244, 5 μl/ml fibronectin, 4 μl/ml bovine pituitary extract and retinoid acid. HDFn are plated for assays at 3×10^4 cells/ml. After 2 days, media is replaced with BrEPI media containing 10^4 BrEPI cells and cultured for a further 2 days.
Upon reaching confluency, the test agent or buffer control is added and the following are applied: 5 ng/ml of IL-4 and 5 ng/ml TNF-α (BF4T). After another 24 hours incubation (37° C., 5% CO2) the cultures are evaluated for the following parameters: CD90, Keratin 8/18, Eotaxin-3, I-TAC, ICAM-1, EGFR, IL-1α, IL-8, MCP-1, MMP-9, MMP-1, MMP-3, PAI-1, TGF-β3, TIMP-2, uPA, tPA, CD87 and VCAM-1. Additional readouts of interest may include IP-10, Elafin/SKALP, Endothelin-1, Gro-a, CD119, IL-6, GM-CSF, IL-16, FGF, PDGF, CD44, E-cadherin, CD40, IL-15Ralpha, CD1d, CD80, CD86, TARC, eotaxin-1, CD95, MCP-4 and MIP-3a. Other stimuli of interest include: TGFbeta, IL-5, II-10, IL-9, Tryptase, GM-CSF, II-17, CD40L, Histamine, IgE stimulated Mast Cells, LTB4 stimulated neutrophils, and PBMC stimulated with LPS or SAg.
Each screened compound is scored according to its modulation of the selected readout parameters. Compounds receive a positive score (score of 1) or negative score (score of 0) for each readout parameter set forth in Table 2 that is modulated in the desired direction. […] Parameters may be penalized by making the positive score a −1 for parameters where regulation is opposite to the desired direction.
Cell culture. Human umbilical vein endothelial cells (HUVEC) were pooled from multiple donors, cultured according to standard methods, and plated into microtiter plates at passage 4. Cell culture medium for all systems containing HUVEC included hydrocortisone. Coronary artery smooth muscle cells (CASM3C) and umbilical artery smooth muscle cells (HSM3C) were cultured according to standard procedures. Peripheral blood mononuclear cells (PBMC) were prepared from buffy coats from normal human donors according to standard methods. Monocyte-derived macrophages were differentiated in the presence of M-CSF for 7 d according to standard procedures. Human dermal fibroblasts were pooled from 3 donors, cultured according to standard methods, and plated confluent 24 h before stimulation. Cell culture medium for all systems containing fibroblasts and keratinocytes contained low hydrocortisone. Epidermal keratinocytes and bronchial epithelial cells from 3 donors were cultured according to standard procedures and pooled when plated into microtiter plates.

| Compound | MMP-3 score | PAI-1 score | MMP-1 score | uPA score |
| --- | --- | --- | --- | --- |
| Cn1cnc([N+](=O)[O-])c1Sc1ncnc2nc[nH]c12 [Azathioprine] | 0 | 0 | 0 | 0 |
| CCc1oc2ccccc2c1C(=O)c1cc(Br)c(O)c(Br)c1 [Benzbromarone] | 1 | 0 | 0 | 0 |
| C=C1CC[C@H](O)C/C1=C/C=C1\CCC[C@]2(C)[C@@H]([C@H](C)/C=C/[C@H](C)C(C)C)CC[C@@H]12 [Calciferol] | 0 | 0 | 0 | 1 |
| COc1cc2c(c(OC)c1OC)-c1ccc(OC)c(=O)cc1[C@@H](NC(C)=O)CC2 [Colchicine] | 0 | 0 | 0 | 0 |
| O=C(O)c1ccccc1Nc1cccc(C(F)(F)F)c1 [Flufenamic Acid] | 0 | 1 | 0 | 0 |
| Fc1ccc(C(OCCN2CCN(CCCc3ccccc3)CC2)c2ccc(F)cc2)cc1 [GBR 12909] | 0 | 0 | 0 | 0 |
| CCCCN(CCCC)CCC(O)c1cc2c(Cl)cc(Cl)cc2c2cc(C(F)(F)F)ccc12 (stereo not drawn) [Halofantrine] | 0 | 1 | 0 | 0 |
| CCN(CC)CCNc1ccc(CO)c2sc3ccccc3c(=O)c12 [Hycanthone] | 0 | 0 | 0 | 0 |
| O=c1cc(-c2ccc(O)c(O)c2)oc2cc(O)cc(O)c12 [Luteolin] | 0 | 1 | 0 | 0 |
| COC(=O)Nc1nc2ccc(SC(C)C)cc2[nH]1 [Methiazole] | 1 | 1 | 0 | 0 |
| C[C@]12C=CC(=O)C=C1CC[C@@H]1[C@@H]2[C@@H](O)C[C@@]2(C)[C@H]1CC[C@]2(O)C(=O)CO [Prednisolone] | 0 | 0 | 0 | 0 |
| Cc1c(Cl)cccc1Nc1ccccc1C(=O)O [Tolfenamic Acid] | 1 | 1 | 0 | 0 |
| COc1cc(-c2ccc(=O)[nH]n2)ccc1OC(F)F [Zardaverine] | 0 | 1 | 0 | 0 |
| (R)-(−)-Apomorphine | 0 | 0 | 0 | 0 |
| Antimycin A | 0 | 0 | 0 | 1 |
